Measured values: ChEMBL document CHEMBL1130916, “Design and synthesis of conformationally-constrained MMP inhibitors” (Bioorg Med Chem Lett, 1998)

Assays:
Stromelysin-1 = Stromelysin-1 (Homo sapiens, UniProt P08254); assay: Inhibition of matrix metalloprotease-3 (MMP-3)
Interstitial collagenase = target: T1, Interstitial collagenase (Homo sapiens, UniProt P03956); assay: Inhibition of matrix metalloprotease-1 (MMP-1)
T1 sequence (P03956 whole entry): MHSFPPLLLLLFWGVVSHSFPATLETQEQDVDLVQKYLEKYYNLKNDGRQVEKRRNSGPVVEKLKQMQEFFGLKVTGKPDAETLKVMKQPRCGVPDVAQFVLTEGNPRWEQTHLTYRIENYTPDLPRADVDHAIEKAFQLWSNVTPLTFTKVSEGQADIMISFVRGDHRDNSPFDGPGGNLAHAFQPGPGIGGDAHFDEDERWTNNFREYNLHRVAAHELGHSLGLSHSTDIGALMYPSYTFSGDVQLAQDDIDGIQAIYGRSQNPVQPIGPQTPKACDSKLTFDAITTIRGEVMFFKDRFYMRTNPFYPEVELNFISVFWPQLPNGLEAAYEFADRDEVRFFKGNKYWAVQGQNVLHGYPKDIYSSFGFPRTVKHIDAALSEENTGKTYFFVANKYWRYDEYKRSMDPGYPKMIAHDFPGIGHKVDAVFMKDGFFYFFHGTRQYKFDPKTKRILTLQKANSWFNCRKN

Sequence of Stromelysin-1 (P08254 whole entry): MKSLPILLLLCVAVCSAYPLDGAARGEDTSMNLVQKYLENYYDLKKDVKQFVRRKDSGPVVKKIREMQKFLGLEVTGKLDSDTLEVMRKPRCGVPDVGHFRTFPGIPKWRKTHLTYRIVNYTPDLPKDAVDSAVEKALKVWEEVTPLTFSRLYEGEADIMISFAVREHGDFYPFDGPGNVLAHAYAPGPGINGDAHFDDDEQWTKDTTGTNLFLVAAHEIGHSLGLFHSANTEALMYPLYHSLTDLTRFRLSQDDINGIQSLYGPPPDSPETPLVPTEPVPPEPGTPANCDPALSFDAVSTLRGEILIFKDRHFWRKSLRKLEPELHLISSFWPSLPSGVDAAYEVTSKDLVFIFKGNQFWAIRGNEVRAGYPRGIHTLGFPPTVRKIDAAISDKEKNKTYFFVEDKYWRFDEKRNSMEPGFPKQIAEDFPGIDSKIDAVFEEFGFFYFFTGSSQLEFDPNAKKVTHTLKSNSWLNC

| IC50 (Stromelysin-1) | IC50 (Interstitial collagenase) | SMILES |
| --- | --- | --- |
| 94 nM | 83 nM | CCC[C@@H](C(=O)NO)[C@@H](CC(C)C)C(=O)N[C@H]1CCCCN(CCOC)C1=O |
| 21 nM | 57 nM | CCCCCCCC[C@@H](C(=O)N[C@H]1CCCCN(CC(=O)OC)C1=O)[C@@H](C)C(=O)NO |
| 108 nM | 4360 nM | CCCCCCCCC(C(=O)N[C@H]1CCCCN(CCOC)C1=O)C(C)C(=O)NO (single isomer, unassigned) |
| 30 nM | 112 nM | CCCCCCCC[C@@H](C(=O)N[C@H]1CCCCN(CCOC)C1=O)[C@@H](C)C(=O)NO |
| 215 nM | 49 nM | COC(=O)CN1CCCC[C@H](NC(=O)[C@H](CC(C)C)[C@@H](C)C(=O)NO)C1=O |
| 58 nM | 96 nM | CCC[C@@H](C(=O)NO)[C@@H](CC(C)C)C(=O)N[C@H]1CCCCN(CC(=O)OC)C1=O |
| 250 nM | 1890 nM | CCCCCCCC[C@H](CC(=O)NO)C(=O)N[C@H]1CCCCN(CCOC)C1=O |
| – | 51 nM | COCCN1CCCC[C@H](NC(=O)[C@H](CC(C)C)[C@@H](CCCO)C(=O)NO)C1=O |

Second part, the compound before the results:

| SMILES | IC50 (Stromelysin-1) | IC50 (Interstitial collagenase) |
| --- | --- | --- |
| CC(C)C[C@H](CC(=O)NO)C(=O)N[C@H]1CCCCN(CCCOc2ccccc2)C1=O | 1420 nM | 140 nM |
| COC(=O)CN1CCCC[C@H](NC(=O)[C@@H](CC(=O)NO)CC(C)C)C1=O | 2900 nM | 225 nM |
| CC(C)C[C@H](CC(=O)NO)C(=O)N[C@H]1CCCCNC1=O | 11700 nM | 3900 nM |
| CCCCCCCC[C@H](CC(=O)NO)C(=O)N[C@H]1CCCCN(CC(=O)OC)C1=O | 1040 nM | 11 nM |
| CC(C)C[C@H](CC(=O)NO)C(=O)N[C@H]1CCCCN(CCOc2ccccc2)C1=O | 518 nM | 117 nM |
| CCCCC[C@H](CC(=O)NO)C(=O)N[C@H]1CCCCN(CC(=O)OC)C1=O | 824 nM | 129 nM |
